Counter-ions that a name gives are not always drawn. Marks after values point to notes of the source that are not given here.
Columns and labels:
[1] = tested on: hamsters with cerebellar ataxia; test: Rotarod test in hamsters with cerebellar ataxia; type: in vivo, hamster; conditions: for Delayed days until the onset of cerebellar ataxia in hamster: 25 μg/kg body weight; for time (sec) endured until falling from rotarod apparatus: cerebellar ataxia hamsters, 25 μg/kg body weight i.p. once a day
Excerpt: (§1) Since NK-4 was confirmed to have a neurodegenerative inhibitory action in Experiment 1, hamsters with cerebellar ataxia (cerebellar ataxia is called “cerebellar A” and hamsters with cerebellar ataxia are called “hamsters with cerebellar A”, hereinafter) as a suitable model for human neurodegenerative diseases (e.g., spinal cerebellar degeneration) were subjected to examine the influence of NK-4 administration on their behaviors and brain tissues. Twenty-five hamsters with natural mutation (Nna1 inhibition), which are known to lose Purkinje's cells after three-weeks of age and then induce a spontaneous onset of kinetic motor ataxia after seven-weeks of age (see Akita K. et al., “J. Neurogenetics”, Vol. 21, pp. 19-29, 2007), had been fed at Hayashibara Biochemical Laboratories., Inc., Okayama, Japan, were randomly allocated to the test groups 1 to 5, five heads in each group, as shown in Table 2. Prior to the onset of cerebellar A (at three-weeks of age), PBS was started to administer to the hamsters in the test group 1 at a dose of 10 ml/kg/day. Prior to the onset of cerebellar A (at three-weeks of age), NK-4 was started to be administered to the hamsters in the test groups 2 to 4 at a daily dose of 20 μg/kg, 100 μg/kg or 500 μg/kg. “IGF-1, human, a product name of insulin-like growth factor, commercialized by Assaypro LLC, MO, USA. These administered ingredients were intraperitoneally administered daily to hamsters once a day up to 10-weeks of age. The degree of symptom of cerebellar A and the improvement effect on the symptom by NK-4 were evaluated with an index of improvement in motor coordination of hamsters by conducting once a week the later described rotarod test and the slant tolerance test. At the age of 10-weeks, the hamsters were subjected to counting the falling down frequency and extracted their brains, which were then histologically evaluated. In parallel, the concentration of glutamic acid in the bloods and cerebrospinal fluids (CSF) of the hamsters was assayed. As a test group 6, five normal hamsters, with the same age as the hamsters with cerebellar A used in the test groups 1 to 5, were provided and tested similarly as the hamsters with cerebellar A in such a manner of intraperitoneally administering PBS to them at a dose of 10 ml/kg/day once a day up to 10-weeks of age.
As an index for coordinated movement, it was used a duration time of hamster's movement to staying on a rotarod by locomotion in synchronization with the turn of the rotarod; placing a hamster on an apparatus with a rotarod (having a diameter of 60 mm, prepared by Hayashibara Biochemical Laboratories, Inc., Okayama, Japan), turning at a constant rate of six rpm, and measuring the time until the hamster falls down from the rotarod (see Fernandez et al., “Proc. Natl. Acad. Sci. USA”, Vol. 95, pp. 1253-1258, 1998). The test was repeated six times for each hamster, where five-times of tests starting from the initiation of the test were made as a preliminary examination, and the time until each hamster fell down from the rotarod (called “falling time”, hereinafter) was measured, followed by averaging the falling times for each group consisting of five heads. The falling time was measured until 180 seconds. Based on the results, the relationship between the age and the falling time for each hamster with cerebellar A (test group 1) administered with PBS was graphed. […]
Similarly as in Experiment 2, 130 hamsters with cerebellar ataxia, born within the same week and 3-weeks of age, were randomly divided into 13 groups, consisting of 10 hamsters, respectively. […]

[2] = tested on: hamsters with cerebellar ataxia; test: Slant tolerance test in hamsters with cerebellar ataxia; type: in vivo, hamster; conditions: cerebellar ataxia hamsters, 25 μg/kg body weight i.p. once a day
Excerpt: as §1
Hamsters were placed on a slope-angle-variable-board while keeping their heads upward, followed by determining the angle for allowing the hamsters to keep staying thereupon for five seconds for use as an endurable-slant-slope-angle test (see Rivlin et al., “J. Neurosurg.”, Vol. 47, pp. 577-581, […]). The initial slope angle was set to 25 degrees and increased by 5 degrees step by step. When a tested hamster in a static condition fell down within five seconds, the slope angle was decreased by one degree step by step, followed by judging the angle that allows the hamster to keep static staying for five seconds, measuring the tolerable slant-slope-angle, and averaging the data for five heads in each group.
(§2) Similarly as in Experiment 2, 130 hamsters with cerebellar ataxia, born within the same week and 3-weeks of age, were randomly divided into 13 groups, consisting of 10 hamsters, respectively. […] The hamsters (10 heads) in the remaining one group were intraperitoneally administered from their age of 3- to 10-weeks with a sterilized 10% maltose solution (pyrogen-free) in an amount of 0.5 ml/hamster (control) once a day for 56 days At the next day after the end of the administration, body weight of each hamster was weighed, followed by performing rotarod test, slope endurance test, and counting of falling down frequency. The types of compounds applied to each group and the results are in Table 25.

[3] = tested on: hamsters with cerebellar ataxia; test: Falling down frequency of hamsters with cerebellar ataxia; type: in vivo, hamster; conditions: cerebellar ataxia hamsters, 10-weeks of age; 25 μg/kg body weight i.p. once a day
Excerpt: as §1
Hamsters, 10-weeks of age, were respectively housed in a breeding cage. Their falling down frequencies within one minute were counted under a macroscopic observation and the data from five heads in each group were averaged. For reference, the hamsters with cerebellar A used in this experiment are known to increase their falling down frequencies after nine weeks of age.
as §2

[4] = tested on: hamsters with cerebellar ataxia; test: Histological evaluation of cerebellum of hamsters with cerebellar ataxia; type: in vivo, hamster; conditions: 10-weeks of age, 25 μg/kg body weight
Excerpt: as §1
Hamsters, 10-weeks of age, after completion of test on coordinated movement such as a confirmation of falling down frequency were intraperitoneally received 50 mg/kg pentobarbital, bled from their postcavas to let them die, and extracted their cerebra and cerebella, followed by fixing them with a 10% by volume of formalin solution. The resulting cerebra and cerebella were photographed with a digital camera apart from a prescribed high position and measured diameters in sagittal and horizontal directions for each photograph. The volumes of cerebra and cerebella were respectively determined by calculating with the formula, (length of sagittal direction)^2×(length of horizontal direction)×0.5; and the data from five heads in each group were averaged. The hamsters with cerebella A used in this experiment are known to reduce cell density of Purkinje's cells and granular cells. Cerebellar slices, which had been cut out in sagittal direction, were stained with hematoxylin-eosin stain, and microscopically observed to count the total number of Purkinje's cells within a Purkinje's cell layer ([…] I to X) and the number of granular cells per unit area, and to confirm subjects in which demyelination was observed within their cerebellar white matters. The results are in Table 5 in parallel.

[5] = tested on: hamsters with cerebellar ataxia; test: Concentration of glutamic acid in cerebrospinal fluid (CSF); type: in vivo, hamster; conditions: 10-weeks of age, 25 μg/kg body weight
Excerpt: as §1
The content of glutamic acid, which is used for synthesizing gamma-amino butyric acid (GABA) as a main excitatory neurotransmitter and inhibitory neurotransmitter that regulate higher-order functions such as memory/learning in mammalian central nervous system, was assayed. In harvesting the brains from the above hamsters, they were blooded from their postcavas, followed by collecting CSF for use in the later described assay for glutamic acid concentration. […]

[6] = Body weight of hamsters with cerebellar ataxia during administration; type: in vivo, hamster; conditions: compared between groups administered with PBS, NK-4 and IGF-1
APP Tg mouse [7] = test: Passive avoidance test, APP transgenic mouse; type: in vivo; conditions: dose 200 μg/kg body weight, five times a week for 12 weeks
APP Tg mouse [8] = test: Water maze test, APP transgenic mouse; type: in vivo; conditions: dose 200 μg/kg body weight, time required for arriving the platform

In the case of “IGF-1: insulin-like growth factor, human, commercialized by Assaypro LLC”, the “Delayed days until the onset of cerebellar ataxia in hamster” value (“Delayed days until the onset” for short) ([1]; 5-Weeks) is reported as 1 days, the “Delayed days until the onset” value ([1]; 6-Weeks) is reported as 8 days and the “Delayed days until the onset” value ([1]; 7-Weeks) is reported as 1 days. The “Delayed days until the onset” value ([1]; 8-Weeks) was 1 days, the “Delayed days until the onset” value ([1]; 9-Weeks) was 0 days and the “Delayed days until the onset” value ([1]; 10-Weeks) was 0 days. For the same compound, the “time (sec) endured until falling from rotarod apparatus” value (from here on “time (sec) endured until falling”) ([1]; 4-Weeks) was 126 ± 11 s, the “time (sec) endured until falling” value ([1]; 5-Weeks) was 63 ± 13 s and the “time (sec) endured until falling” value ([1]; 6-Weeks) was 43 ± 11 s. The “time (sec) endured until falling” value ([1]; 7-Weeks) was 21 ± 5 s, the “time (sec) endured until falling” value ([1]; 8-Weeks) was 9 ± 2 s and the “time (sec) endured until falling” value ([1]; 9-Weeks) was 6 ± 1 s. The “time (sec) endured until falling” value ([1]; 10-Weeks) was 6 ± 1 s, the “endurable-slant-slope-angle (degree)” value ([2]; 4-Weeks) was 44.4 ± 0.2 degree and the “endurable-slant-slope-angle (degree)” value ([2]; 5-Weeks) was 41.8 ± 0.6 degree. The “endurable-slant-slope-angle (degree)” value ([2]; 6-Weeks) was 40.2 ± 0.7 degree, the “endurable-slant-slope-angle (degree)” value ([2]; 7-Weeks) was 41.6 ± 0.8 degree and the “endurable-slant-slope-angle (degree)” value ([2]; 8-Weeks) was 35.6 ± 0.2 degree. For the same compound, the “endurable-slant-slope-angle (degree)” value ([2]; 9-Weeks) was 35.2 ± 0.6 degree, the “endurable-slant-slope-angle (degree)” value ([2]; 10-Weeks) was 33.0 ± 0.9 degree and the “Falling down frequency (frequency/min)” value [3] was 11.4 ± 0.4 frequency/min. The “Cerebellar volume (mm^3)” value ([4]; cerebellar ataxia hamsters) was 77.6 ± 6.1* mm^3, the “Number of Purkinje cells (cells)” value ([4]; cerebellar ataxia hamsters) was 71 ± 16 cells and the “Number of granular cells (cells/20000 μm^2)” value ([4]; cerebellar ataxia hamsters) was 371 ± 11 cells/20000 μm^2. The “Number of subject (head) with apparent demyelination in cerebellar white matter” value ([4]; five heads per group) was 3 head, the “Concentration of glutamic acid in cerebrospinal fluid” value [5] was 7.9 ± 2.0 µM and the “body weight of hamsters with cerebellar A, weighed once every week up to 10-weeks of age” value [6] was “no significant difference”.
In the case of `COc1cc2c(cc1OC)C(=O)C(CC1CCN(Cc3ccccc3)CC1)C2` (centres unmarked) [Donepezil HCl], the “Passive avoidance reaction” value (APP Tg mouse [7]) is reported as 200 ± 61 s, the “Water maze test 1st day” value (APP Tg mouse [8]; 1st day) is reported as 120 ± 0 and the “Water maze test 2nd day” value (APP Tg mouse [8]; 2nd day) is reported as 77 ± 19. The “Water maze test 3rd day” value (APP Tg mouse [8]; 3rd day) was 53 ± 13 and the “Water maze test 4th day” value (APP Tg mouse [8]; 4th day) was 62 ± 16.
